{
  "source": "patent US20250100947A1",
  "about": "“NITROUS OXIDE INHIBITOR” (His Majesty the King in Right of New Zealand Acting Through …, priority 2021, published 2025)",
  "key": {"[1]": {"test_system": "N2O emissions from urine-treated pasture soil", "test": "Field trial, static chamber N2O emissions from simulated cattle urine patches", "conditions": "for Net emitted: control subtracted", "from_the_text": "A trial site was fenced off and stock excluded for about 14 weeks, until the commencement of the field trials, to avoid interference from fresh dung and urine inputs and reduce spatial heterogeneity/variability from the previous uneven deposition of dung and urine.\nApproximately two weeks before the commencement of the trial, pasture was mown to 50 mm height, 4 soil samples (to 100 mm depth) were collected for physicochemical characterisation and Field plots were established in a randomised complete block design with 5 treatments as shown in Table 1. Plot size was 2.5×2.5 m for all treatments with an additional buffer area of at least 0.5 m between adjacent plots.\nNatural urine deposition was simulated with 2 L cattle urine (containing 8.35 g N L^−1) in large static chambers allowing for urine edge-effect. All solutions containing a N2O inhibitor were applied at the same rate (30 mL/Chambers; 600 L/ha). For all urine treatments, 2 L urine was poured to the central point of the chamber base area at a height of approximately 1.2 m and allowed to spread naturally. To mimic the “Spikey®” urine patch treatment, a spot-sprayer system (supplied by Pastoral Robotics Limited) was used for treating the urine patch in the large chambers. All the inhibitor compositions were applied to the relevant treatments within 4 h after urine application.\nA static chamber technique was used to measure N2O emissions, and the methodology was based on that used in a previous published study on N2O emissions (Luo et al 2015). One week before the trial began, static chamber bases (80 cm diameter) were inserted into the soil. Herbage within the chamber base and the ring areas was cut to 50 mm above ground level before the application of the treatments.\nPre-treatment gas flux was taken from each chamber a day before the application of treatments to determine the spatial variability of background of N2O flux between the plots and to assist with interpretation of patterns of N2O flux from individual sampling plots post treatment application as a covariate for statistical analysis of post-treatment emissions.\nPost treatment gas measurements were carried out at 2, 24 and 72 h after application of the urine and inhibitor compositions, twice a week for the first 8 weeks and thereafter weekly. The measurements were continued until the N2O flux values for treatment plots reached the background levels measured in the control plots. During weekly phases of N2O flux measurement, additional sampling occurred as soon as practical following rainfall events of greater than 10 mm of rain in the previous 24 h. On each sampling day, N2O measurements were carried out between 1000 and 1200 h. Gas samples from chamber headspace were taken during a cover period of 100 minutes at times t0, […] (or similar). Two background atmosphere samples were also taken on each sampling day at each site. […] The measurements of N2O emission from the treatment plots continued until the first week of September. During this period, 3 pasture harvests were taken, and herbage samples analysed for N content.\nNitrous oxide concentration of gas samples were analysed by gas chromatograph using a Shimadzu GC-17a gas chromatograph equipped with a 63Ni-electroncapture detector (oven, valve and detector temperatures were operated at 65, 100 and 280° C., respectively, using oxygen-free N as a carrier gas and connected to an automatic sampler capable of handling up to 120 samples, and a SRI 8610 automated gas chromatograph. Chamber temperatures were recorded at the beginning and end of the cover period and the average of the two readings were considered the chamber temperature for calculating gas flux. The increase in N2O concentration within the chamber headspace, for the gas samples collected at t0, t50 and t100 was generally linear (R2>0.90). Therefore, the hourly N2O fluxes will be calculated using linear regression and the ideal gas law according to Equation 1: […]"}, "[2]": {"test_system": "soil potential denitrification (DEA) enzyme activity", "test": "Soil denitrification enzyme activity (DEA) short-term incubation", "format": "biochemical", "experimental": "Short-term incubation studies were conducted to determine the effect of the compound of the invention on soil potential denitrification (DEA) enzyme activity. Details of each assay are described in Zhong et al. (2015, 2016).\nThe denitrification assay involved testing the effect of five ALBSO treatments: 0 (water only), carrier (formic acid only), low (0.011 μg ALBSO g^−1 dry soil), high (0.046 μg ALBSO g^−1 dry soil) and very high (0.91 μg ALBSO g^−1 dry soil) at a common N rate delivered as KNO3.\nThe ALBSO treatments were formulated with an absolute minimum amount of formic acid needed to just dissolve the required amount of ALBSO into solution. Identical amounts of formic acid were used to formulate the carrier, low, high and very high ALBSO treatments, with the carrier containing only formic acid and water. The pH of carrier, low, high and very high ALBSO treatment solutions was identical and mildly acidic.\nAfter a 4-hour incubation period, N2O concentrations were lower (P<0.008) for incubation vessels that had been treated with ALBSO. […] Typically, results for this kind of incubation become unreliable after 6 hours, however, the 8 hour sampling in case the high level of N addition allowed for a longer period of microbial activity.\nA further incubation was performed to test the effect of the carrier as well as the high rate of ALBSO on denitrification enzyme activity.\nThe final incubation included a treatment where acetylene was not added. The use of acetylene gives further information on whether the ALBSO effect on denitrification is due to effects on enzymes linked to nirK and nirS (with acetylene) or nosZ (without acetylene) genes. […] Letters refer to ALBSO effects within acetylene treatments (LSD 5.3, n=3)."}, "[3]": {"test_system": "NO3^− leaching from grazed pasture soil", "test": "Field lysimeter study of nitrate leaching from cow urine", "conditions": "for % Reduction of leaching due to inhibitor: compared to the urine only treatment, P<0.05; for Total leaching: cow urine 600 kg N ha^−1, inhibitor applied within 1 hour, DCD at 10 kg ha^−1, urine alone 358", "experimental": "A field lysimeter study was conducted to examine the effects of albendazole sulfoxide on NO3^− leaching resulting from cow urine applied to a grazed pasture (at a loading rate of about 600 kg N ha^−1). The field lysimeter experiment was a randomized complete block design with the following treatments: • Control (no urine and no inhibitor) • Urine alone (600 kg N ha^−1) • Urine plus DCD (DCD solution at 10 kg ha^−1) • Urine plus albendazole sulfoxide (supplied by AgResearch Palmerston North)\nUrine was collected from dairy cows that had been grazing an established ryegrass-white clover pasture. The cow urine was bulked and held at 4° C. for a few days prior to application. The urine was applied in a single application at an N loading rate of 600 kg N ha^−1 and a hydraulic loading rate of 10 L m^−2 to simulate dairy cow urine deposition. […] The treatments were replicated 6 times.\nThese urine and inhibitor treatments were also simultaneously applied to associated 0.5 m^2 plots so that soil samples could be taken throughout the trial to monitor mineral N transformations and moisture levels.\nLeachate volumes were measured from the lysimeters when drainage occurred over the drainage period (May-October). Subsamples of leachate were collected and frozen at −20° C. prior to analysis for nitrate N(NO3^−N) and ammonium N(NH4^+—N) using a Skalar SAN^++ segmented auto flow analyser (Skalar Analytical B.V., Breda, Netherlands)."}, "[4]": {"conditions": "Urine + high concentration ALBSO (900 μg), UA1"}, "[5]": {"conditions": "Urine + low concentration ALBSO (266 μg), UA2"}},
  "data": [
    {"compound": "CCC[S+]([O-])c1ccc2[nH]c(NC(=O)OC)nc2c1", "note": "(stereo not drawn) [ALBSO, methyl [5-(propane-1-sulfinyl)-1H-benzoimidazol-2-yl]-carbamate]", "values": [
      {"measurement": "Total emitted", "setting": "[1]; Urine 2 L + high concentration ALBSO (900 μg in 0.054M formic acid), UA1, cumulative over 4 months", "value": 3703, "unit": "g N2O—N"},
      {"measurement": "Total emitted", "setting": "[1]; Urine 2 L + low concentration ALBSO (266 μg in 0.054M formic acid), UA2, cumulative over 4 months", "value": 3147, "unit": "g N2O—N"},
      {"measurement": "EF3 (% of applied N emitted)", "setting": "[1]; [4]", "value": "0.84 % of applied N emitted"},
      {"measurement": "Net emitted", "setting": "[1]; [4]", "value": 2807, "unit": "g N2O—N"},
      {"measurement": "EF3 (% of applied N emitted)", "setting": "[1]; [5]", "value": "0.68 % of applied N emitted"},
      {"measurement": "Net emitted", "setting": "[1]; [5]", "value": 2251, "unit": "g N2O—N"},
      {"measurement": "Emissions from treated urine", "setting": "[1]; urine treated with low concentration ALBSO composition", "value": 3147, "unit": "g N2O—N ha^−1"},
      {"measurement": "ppm N2O after 4 h", "setting": "[2]; High (0.046 μg ALBSO g^−1 dry soil), first incubation, n=3, H2O 138", "value": 102, "unit": "ppm N2O"},
      {"measurement": "ppm N2O after 8 h", "setting": "[2]; High (0.046 μg ALBSO g^−1 dry soil), first incubation, H2O 236", "value": 217, "unit": "ppm N2O"},
      {"measurement": "N2O concentration after 4-hour incubation, acetylene not added", "setting": "[2]; High ALBSO, final incubation, n=3, Acetylene No, H2O 97.3", "value": 84.7, "unit": "a ppm N2O"},
      {"measurement": "N2O concentration after 4-hour incubation, acetylene added", "setting": "[2]; High ALBSO, final incubation, n=3, Acetylene Yes, H2O 96.9", "value": 90.9, "unit": "a ppm N2O"},
      {"measurement": "ppm N2O after 4 h", "setting": "[2]; High rate of ALBSO, further incubation with carrier, n=4, H2O 97", "value": 90, "unit": "ppm N2O"},
      {"measurement": "ppm N2O after 8 h", "setting": "[2]; High rate of ALBSO, further incubation with carrier, n=4, H2O 137", "value": 131, "unit": "ppm N2O"},
      {"measurement": "ppm N2O after 4 h", "setting": "[2]; Low (0.011 μg ALBSO g^−1 dry soil), first incubation, n=3, H2O 138", "value": 96, "unit": "ppm N2O"},
      {"measurement": "ppm N2O after 8 h", "setting": "[2]; Low (0.011 μg ALBSO g^−1 dry soil), first incubation, H2O 236", "value": 233, "unit": "ppm N2O"},
      {"measurement": "ppm N2O after 4 h", "setting": "[2]; Very High (0.91 μg ALBSO g^−1 dry soil), first incubation, n=3, H2O 138", "value": 86, "unit": "ppm N2O"},
      {"measurement": "ppm N2O after 8 h", "setting": "[2]; Very High (0.91 μg ALBSO g^−1 dry soil), first incubation, H2O 236", "value": 232, "unit": "ppm N2O"},
      {"measurement": "N2O concentrations after 4-hour incubation, treated vs untreated vessels", "setting": "[2]; all ALBSO amounts, P<0.008, 28° C., anaerobic", "value": "lower"},
      {"measurement": "Effect on reducing N2O over both acetylene treatments", "setting": "[2]; final incubation, P=0.005", "value": "significant effect of ALBSO on reducing N2O"},
      {"measurement": "% Reduction of leaching due to inhibitor", "setting": "[3]", "value": 20, "unit": "%"},
      {"measurement": "Total leaching", "setting": "[3]", "value": 289, "unit": "kg NO3^−—N ha^−1"}
    ]},
    {"compound": "N#CN=C(N)N", "note": "[DCD, dicyandiamide, reference compound]", "values": [
      {"measurement": "Total emitted", "setting": "[1]; Urine 2 L (16.70 g N) + DCD (0.25 g N), UDCD, cumulative over 4-month measurement period", "value": 3142, "unit": "g N2O—N"},
      {"measurement": "EF3 (% of applied N emitted)", "setting": "[1]; Urine + DCD (0.25 g N), UDCD", "value": "0.67 % of applied N emitted"},
      {"measurement": "Net emitted", "setting": "[1]; Urine + DCD (0.25 g N), UDCD", "value": 2246, "unit": "g N2O—N"},
      {"measurement": "Emissions from treated urine", "setting": "[1]; urine treated with DCD", "value": "3142±300", "unit": "g N2O—N ha^−1"},
      {"measurement": "% Reduction of leaching due to inhibitor", "setting": "[3]", "value": 30, "unit": "%"},
      {"measurement": "Total leaching", "setting": "[3]", "value": 253, "unit": "kg NO3^−—N ha^−1"}
    ]}
  ]
}
